Patent US20250127905A1, “GLUTARIMIDE COMPOUND AND USE THEREOF” (MEDSHINE DISCOVERY INC., priority 2021, published 2025)
Structures can show the parent of a compound that is named as a salt.

Experiments:
[1] = biological target: T1, IRAK4 (Homo sapiens, UniProt Q9NWZ3); assay: Target protein degradation effect in K562 IRAK4-HiBiT cells (Nano-Glo HiBiT); assay type: cell-based; settings: incubated 16 to 18 hours
T1 construct: expressed in transfected cells; host or cells: K562 IRAK4-HiBiT cells
T1 sequence (Q9NWZ3 1-460): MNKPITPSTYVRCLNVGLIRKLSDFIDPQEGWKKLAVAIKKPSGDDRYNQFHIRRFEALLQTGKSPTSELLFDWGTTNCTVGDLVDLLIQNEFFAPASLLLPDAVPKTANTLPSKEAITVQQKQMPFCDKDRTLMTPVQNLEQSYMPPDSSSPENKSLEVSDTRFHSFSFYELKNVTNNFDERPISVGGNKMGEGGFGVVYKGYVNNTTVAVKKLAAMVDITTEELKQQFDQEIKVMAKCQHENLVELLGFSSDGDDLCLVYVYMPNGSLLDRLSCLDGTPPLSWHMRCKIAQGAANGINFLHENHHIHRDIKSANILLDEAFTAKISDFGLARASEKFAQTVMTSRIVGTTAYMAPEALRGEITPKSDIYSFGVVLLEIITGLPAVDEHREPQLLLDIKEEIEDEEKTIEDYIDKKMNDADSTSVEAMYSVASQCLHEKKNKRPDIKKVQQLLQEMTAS
Procedure: Experimental purpose: In this experiment, the degradation effect of the test compound on the target protein IRAK4 in K562 IRAK4-HiBiT cells was detected.
• Cells: K562 IRAK4-HiBiT cells • Culture media: RPMI 1640+10% FBS+2 mM GlutaMax+1 mM sodium pyruvate+penicillin/streptomycin • Positive control: 1000 nM; negative control: 0.1% DMSO
• (1). The compound to be tested in powder form was dissolved in DMSO to 10 mM as a storage concentration, and 9 μL of the 10 mM compound to be tested was manually pipetted to column 1 and column 13 of an LDV plate using a pipette; • (2). 6 μL of DMSO was added to columns 2 to 12 and 14 to 24 using Multidrop Combi; [0688](3). the compound to be tested was 3-fold diluted (3 μL+6 μL) from columns 1 to 11 and 13 to 23 using Bravo; • (4). 25 nL of compound solution (columns 1 to 24 of the LDV plate) was transferred to an assay plate using Echo according to the plate layout; • (5). 25 nL of 1 mM positive control solution was transferred to the assay plate as a 100% degradation control (i.e., LC, HPE) and 25 nL of DMSO was transferred to the assay plate as a 0% control (i.e., HC, ZPE) using Echo.
• (1). The cell culture medium was discarded, and the cells were washed once with DPBS, digested with trypsin, and counted to prepare a cell suspension of […]; • (2). 25 µL/well of cell suspension was added to the assay plate containing the compound to be tested using Multidrop Combi at medium speed; • (3). the assay plate containing cells was returned to an incubator with 5% CO2 at 37° C. and incubated for 16 to 18 hours.
• (1). 25 µL/well of assay reagent (NanoGlo lysis buffer+substrate+LgBit protein) was added to the assay plate using Multidrop Combi at high speed, and the plate was shaken for 10 minutes; • (2). the plate was centrifuged at 2000 rpm for 1 minute to remove air bubbles; • (3). the plate was read on Envision using US Luminescence detection method.
The inhibition rate (IR) of the test compound was calculated using the following formula: IR (%)=(RLU vehicle control−RLU compound)/(RLU vehicle control−RLU positive control)×100%, and the vehicle control is the blank control. The inhibition rates of compounds at different concentrations were calculated in Excel, and then XLFit software was used to plot inhibition curves and calculate relevant parameters, including minimum inhibition rate, maximum inhibition rate, and DC50.

[2] = Pharmacokinetic evaluation in mice, experimental operation A (CD-1); assay type: in vivo; settings: CD-1 mice; for bioavailability / clearance / Vd / half-life: male, mouse, plasma; for bioavailability: IV 1 mg/kg, PO 10 mg/kg, read-out: Bioavailability F; for Vd: read-out: Apparent volume of distribution; for half-life: read-out: Elimination half-life (converted)
Description: In this study, CD-1 or C57BL/6N male mice were selected as test animals, and LC/MS/MS method was used to quantify plasma concentrations of the test compound intravenously injected or intragastrically administered to mice at different time points, so as to evaluate the pharmacokinetic profile of the test drug in mice.
CD-1 mice (male, 20 to 35 g, 7 to 10 weeks old, Beijing Vital River) or C57BL/6N mice (male, 20 to 30 g, 7 to 10 weeks old, Beijing Vital River)
A clarified solution or suspension of the test compound was injected into CD-1 mice (overnight fasting) via the tail vein (vehicle: 10% DMSO/10% Solutol/80% H2O), or intragastrically administered into CD-1 mice (overnight fasting). For intravenous injection, blood was collected from the saphenous vein at 0 h (pre-administration) and 0.083 h, 0.25 h, 0.5 h, 1 h, 2 h, 4 h, 8 h, and 24 h after administration, and placed in an anticoagulant tube added with EDTA-K2. The mixture was thoroughly vortexed and mixed, and centrifuged at 3200 g for 10 minutes at 4° C. to obtain plasma. For oral administration, blood was collected from the saphenous vein at 0.25 h, 0.5 h, 1 h, 2 h, 4 h, 8 h, and 24 h after administration, and placed in an anticoagulant tube added with EDTA-K2 (Jiangsu Kangjian Medical Apparatus Co., Ltd.). The mixture was thoroughly vortexed and mixed, and centrifuged at 3200 g for 10 minutes at 4° C. to obtain plasma. Plasma concentrations were determined by LC-MS/MS method, and relevant pharmacokinetic parameters were calculated using Phoenix WinNonlin™ Version 6.3 (Pharsight, Mountain View, CA) pharmacokinetic software with non-compartmental model linear-log trapezoidal method.

[3] = Intragastric administration 10 mg/kg

| Compound | DC50 [1] [nM] | Maximum inhibition rate [1] [%] | other results |
| --- | --- | --- | --- |
| O=C1CCC(c2noc3c(NC(=O)CN4CCN(C[C@H]5CC[C@H](n6cc(NC(=O)c7cnn8ccc(N9CC%10CCC(C9)O%10)nc78)c(C(F)F)n6)CC5)CC4)cccc23)C(=O)N1 (stereo partly drawn) [Formate of WX018] | 9.11 | 97.79 | – |
| O=C1CCC(c2noc3c(CC(=O)NC4CCN(C[C@H]5CC[C@H](n6cc(NC(=O)c7cnn8ccc(N9C[C@H]%10C[C@@H]9CO%10)nc78)c(C(F)F)n6)CC5)CC4)cccc23)C(=O)N1 (stereo partly drawn) [Formate of WX023] | 2.55 | 103.01 | – |
| O=C1CCC(c2coc3cc(NC(=O)CN4CCN(C[C@H]5CC[C@H](n6cc(NC(=O)c7cnn8ccc(N9C[C@H]%10C[C@@H]9CO%10)nc78)c(C(F)F)n6)CC5)CC4)ccc23)C(=O)N1 (stereo partly drawn) [Hydrochloride of WX002] | 24.3 | 56.72 | – |
| O=C1CCC(c2coc3c(C#CCOC4CCN(C[C@H]5CC[C@H](n6cc(NC(=O)c7cnn8ccc(N9C[C@H]%10C[C@@H]9CO%10)nc78)c(C(F)F)n6)CC5)CC4)cccc23)C(=O)N1 (stereo partly drawn) [Hydrochloride of WX003] | 25.5 | 100.06 | Area under the drug-time curve (0-inf) [2, 3]: 4.83 µM·h; Peak concentration [2, 3]: 0.61 µM; Time to peak concentration [2, 3]: 4.0 h; Area under the drug-time curve (0-inf) ([2]; Intravenous injection 1 mg/kg): 1.72 µM·h; bioavailability [2]: 28.2%; clearance ([2]; Intravenous injection 1 mg/kg): 11.7 mL/min/kg; Vd ([2]; Intravenous injection 1 mg/kg): 1.71 L/kg; half-life ([2]; Intravenous injection 1 mg/kg): 1.74 h |
| O=C1CCC(c2coc3c(NC(=O)CN4CCN(C[C@H]5CC[C@H](n6cc(NC(=O)c7cnn8ccc(N9C[C@H]%10C[C@@H]9CO%10)nc78)c(C(F)F)n6)CC5)CC4)cccc23)C(=O)N1 (stereo partly drawn) [Hydrochloride of WX006] | 12.9 | 97.11 | Area under the drug-time curve (0-inf) [2, 3]: 7.73 µM·h; Peak concentration [2, 3]: 1.73 µM; Time to peak concentration [2, 3]: 1.0 h; Area under the drug-time curve (0-inf) ([2]; Intravenous injection 1 mg/kg): 1.18 µM·h; bioavailability [2]: 65.6%; clearance ([2]; Intravenous injection 1 mg/kg): 16.8 mL/min/kg; Vd ([2]; Intravenous injection 1 mg/kg): 1.47 L/kg; half-life ([2]; Intravenous injection 1 mg/kg): 1.03 h |
| O=C1CCC(c2coc3ccc4c(NC(=O)CN5CCN(C[C@H]6CC[C@H](n7cc(NC(=O)c8cnn9ccc(N%10C[C@H]%11C[C@@H]%10CO%11)nc89)c(C(F)F)n7)CC6)CC5)cccc4c23)C(=O)N1 (stereo partly drawn) [Hydrochloride of WX010] | 6.54 | 74.90 | – |
| O=C1CCC(c2noc3ccc4c(NC(=O)CN5CCN(C[C@H]6CC[C@H](n7cc(NC(=O)c8cnn9ccc(N%10C[C@H]%11C[C@@H]%10CO%11)nc89)c(C(F)F)n7)CC6)CC5)cccc4c23)C(=O)N1 (stereo partly drawn) [Hydrochloride of WX014] | 4.29 | 85.62 | – |
| O=C1CCC(c2coc3c(NC(=O)C(F)(F)C4CCN(C[C@H]5CC[C@H](n6cc(NC(=O)c7cnn8ccc(N9C[C@H]%10C[C@@H]9CO%10)nc78)c(C(F)F)n6)CC5)CC4)cccc23)C(=O)N1 (stereo partly drawn) [Hydrochloride of WX016] | 34.2 | 112.11 | – |
| O=C1CCC(c2noc3c(NC(=O)C(F)(F)C4CCN(C[C@H]5CC[C@H](n6cc(NC(=O)c7cnn8ccc(N9C[C@H]%10C[C@@H]9CO%10)nc78)c(C(F)F)n6)CC5)CC4)cccc23)C(=O)N1 (stereo partly drawn) [Hydrochloride of WX017] | 7.02 | 115.78 | – |
| O=C1CCC(c2noc3c(CCCN4CCN(C[C@H]5CC[C@H](n6cc(NC(=O)c7cnn8ccc(N9C[C@H]%10C[C@@H]9CO%10)nc78)c(C(F)F)n6)CC5)CC4)cccc23)C(=O)N1 (stereo partly drawn) [Hydrochloride of WX020] | 5.43 | 100.80 | – |
| O=C1CCC(c2noc3c(NC(=O)CN4CCC(CN5CCC(n6cc(NC(=O)c7cnn8ccc(N9C[C@H]%10C[C@@H]9CO%10)nc78)c(C(F)F)n6)CC5)CC4)cccc23)C(=O)N1 (stereo partly drawn) [Hydrochloride of WX021] | 2.59 | 102.77 | – |
| O=C1CCC(c2noc3c(CCCOC4CCN(C[C@H]5CC[C@H](n6cc(NC(=O)c7cnn8ccc(N9C[C@H]%10C[C@@H]9CO%10)nc78)c(C(F)F)n6)CC5)CC4)cccc23)C(=O)N1 (stereo partly drawn) [Hydrochloride of WX022] | 7.14 | 103.04 | – |
| O=C1CCC(c2noc3c(NC(=O)CN4CCC(O[C@H]5CC[C@H](n6cc(NC(=O)c7cnn8ccc(N9C[C@H]%10C[C@@H]9CO%10)nc78)c(C(F)F)n6)CC5)CC4)cccc23)C(=O)N1 (stereo partly drawn) [WX024] | 1.37 | 109.35 | – |
